Reference: US7144992B2, “Synergistic antimicrobial compositions and methods for reducing biofilm formation” (Kane Biotech Inc., priority 2004, dated 2006)

Key:
[1] = tested on: thioredoxin reductase; conditions: enzyme crosslinked with the thiol-specific reagent; Donna et al., Prot. Sci. 7:369–375, 1998; cited from earlier work
[2] = Solubility; conditions: for solubility in organic solvents: DMSO, methanol, acetone and acetonitrile

| Compound | decrease in thioredoxin reductase activity [1] [%] | solubility in organic solvents [2] | solubility in water [2] |
| --- | --- | --- | --- |
| O=C1C=CC(=O)N1c1ccccc1N1C(=O)C=CC1=O [oPDM, N,N′-(1,2-phenylene) dimaleimide] | 95 | soluble in organic solvents | not soluble in water |
| O=C1C=CC(=O)N1c1ccc2ccc3cccc4ccc1c2c34 [PyrM, N-(1-pyrenyl) maleimide] |  | soluble in organic solvents | not soluble in water |
